Measured values reported in publication PMC3070406 (The Pediatric infectious disease journal, 2011).

What was measured:
[1] = tested on: NA of influenza A (H3N2) virus isolates; type: biochemical; settings: read-out: Susceptibility to oseltamivir (mean IC50 ± SD)
[2] = tested on: NA of influenza A (H1N1) virus isolate; type: biochemical; settings: read-out: Susceptibility to oseltamivir (mean IC50 ± SD)
[3] = tested on: matrix M2 protein; parameters: species or system influenza A (H3N2) virus

| SMILES | IC50 [1] [nM] | IC50 [2] [nM] | Susceptibility to adamantanes (S31N mutation in M2 protein) [3] |
| --- | --- | --- | --- |
| NC12CC3CC(CC(C3)C1)C2 [amantadine] |  |  | resistance |
